Among the data in ChEMBL document CHEMBL1131551, “Carbocyclic frenolicin analogues: novel anticoccidial agents” (1998) are Relative potency values, retold here.

Structures are written as SMILES.

This assay relates to Eimeria. Briefly: In vitro ability to disrupt infectious activity of Eimeria sporozoites expressed as potency relative to frenolicin (B=1). In kind it is functional.
Take `O=C1CC2CCC3=C(C(=O)c4cccc(O)c4C3=O)C2O1` (stereo not drawn): the Relative potency is reported as 0.033.

`O=C1C[C@H]2CCC3=C(C(=O)c4ccccc4C3=O)[C@H]2O1` came in with a Relative potency of 0.167.

Take `CC(=O)OC1CCCC2=C1C(=O)c1ccccc1C2=O` (stereo not drawn): the Relative potency came to 0.001.
